# Source: US12552760B2, “Compounds for increasing the nicotinamide adenine dinucleotide in a subject and methods of use thereof” (The Board of Trustees of the University of Illinois, priority 2022, dated 2026)
# Entries after “also recorded” stand apart in the source; their conditions may differ.
# Assays:
# [1] = tested on: HT-22 mouse hippocampal cell line; test: TNFα-induced ROS in HT-22 cells (MitoSOX); format: cell-based; conditions: for effect on ROS levels across tested concentrations: screened against 1 μg/mL TNFα (FIG. 2A)
# Method: (§1) Cell Culture and Drug Treatments. HT22 mouse hippocampal neuronal cells (a gift from the Salk Institute) were grown in Dulbecco's modified Eagle's medium (DMEM) containing 10% FBS and 1× Antibiotic-Antimycotic (ABAM). Cells were maintained in a humidified 5% CO2 atmosphere incubator at 37° C., and were passaged when 60-80% confluent (1-2 days) by removing media, rinsing with phosphate buffered saline (PBS), and enzymatically detaching with trypsin solution. New culture dishes were seeded with ¼ to ½ the cells from the previous dish.
# All assays were performed using cells with passage number 12-50. The inner 60 wells of black-walled (Corning®3603/3604) 96-well plates were treated with poly D-lysine (30 μL/well) making sure to cover the entire well surface for 15-30 seconds and then washed thoroughly with sterile water (3×−200 μL/well). TNFα stock solutions (10 μg/mL, PBS (0.1% BSA)) were made, aliquoted, and stored at −80° C. Glutamate stock solutions were made fresh immediately before assay. All compound stock solutions (10 mM, DMSO) were made and stored at −20° C.
# Cells were plated at a seeding density of 3,000-5,000 cells/well and allowed to incubate overnight. The next day (18-24 hours later) cells were pretreated with N-PAMs, carefully ensuring equivalent vehicle (DMSO/PBS) composition in each well. After 18-24 hours, stressors (glutamate or TNFα) were treated. Live cell count, ROS level, and total cell count were then assessed after another 18-24 hours.
# ROS Detection. ROS levels were quantified using MitoSOX Red Mitochondrial Superoxide Indicator (Invitrogen). At treatment endpoint, the cell culture media was removed and replaced with phosphate buffered saline (PBS) containing 1 μM calcein-AM, 5 μM MitoSOX, and 10 μg/mL Hoechst dyes. Cells were incubated for 30-45 minutes and then dye-containing PBS was dumped and replaced with 100 μL/well fresh PBS. The plate was immediately analyzed in the Celigo Imaging Cytometer using the Live-Dead-Total protocol, where MitoSOX was used in place of propidium iodide. The cell counts and fluorescence intensities for living (calcein), MitoSOX-stained, and total (Hoechst) were acquired. MitoSOX average mean fluorescence intensity (“dead” average mean intensity) was used to quantify mitochondrial ROS. All readouts used were transformed into fold-change over vehicle treatment for visualization.
# We set out to design assays representing the connection between OS and the multifaceted pathophysiology of aging and ND. We assessed multiple treatments in several cell lines to model OS induced by diverse factors such as neuroinflammatory signaling, neurotransmitter signaling, and direct oxidant species. Assay development highlighted the neuronal HT-22 mouse hippocampal cell line as most robust for these purpose s, and inflammatory cytokine TNFα as being a reliable and disease-relevant method for inducing ROS generation.
# THP-1 human monocytes = test: Measurement of cellular NAD^+ levels in THP-1 cell cultures (NAD/NADH-Glo); format: cell-based; conditions: for potency in THP-1 relative to NP-A3-B2 (cellular EC50 not quantifiable): dose response studies; for ability to raise NAD^+ levels compared to the parent compound NP-A3-B2: initial screening, 3 μM, 24 hours, data not shown
# Method: Measurement of cellular NAD^+ levels in THP-1 cell cultures. Using FK-866 and NMN as negative and positive controls, respectively, we explored a number of cell lines to select a highly reproducible model system with good dynamic range. We optimized a commercial NAD-glo assay in the THP-1 human leukemic monocyte cell line in 96-well plates, measuring NAD^+ after incubation with test compounds for 24 hours. […] All cells were grown at 37° C., under 5% CO2 in a humidified incubator. Low passage THP-1 cells (37,500 cells/well) were seeded in 96-well plates and incubated at 37° C. and 5% CO2 for 1½ h prior to a 24 h treatment. All compounds were dissolved in DMSO, and final DMSO concentrations never exceeded 1%. The NAD^+ levels in the cells are measured using the NAD^+/NADH-Glo™ assay (Promega). The assays were performed in triplicate for each concentration and the IC50 values were determined from non-linear regression analysis of the dose-response curve generated in GraphPad Prism 9.
# NAMPT = molecular target: T1, NAMPT (Homo sapiens, UniProt P43490); test: NAMPT coupled enzyme activity assay (HTS coupled three-enzyme assay); format: biochemical; conditions: dose-response (FIG. 1B)
# T1 construct: His6 (C); made in house
# T1 sequence (P43490 whole entry): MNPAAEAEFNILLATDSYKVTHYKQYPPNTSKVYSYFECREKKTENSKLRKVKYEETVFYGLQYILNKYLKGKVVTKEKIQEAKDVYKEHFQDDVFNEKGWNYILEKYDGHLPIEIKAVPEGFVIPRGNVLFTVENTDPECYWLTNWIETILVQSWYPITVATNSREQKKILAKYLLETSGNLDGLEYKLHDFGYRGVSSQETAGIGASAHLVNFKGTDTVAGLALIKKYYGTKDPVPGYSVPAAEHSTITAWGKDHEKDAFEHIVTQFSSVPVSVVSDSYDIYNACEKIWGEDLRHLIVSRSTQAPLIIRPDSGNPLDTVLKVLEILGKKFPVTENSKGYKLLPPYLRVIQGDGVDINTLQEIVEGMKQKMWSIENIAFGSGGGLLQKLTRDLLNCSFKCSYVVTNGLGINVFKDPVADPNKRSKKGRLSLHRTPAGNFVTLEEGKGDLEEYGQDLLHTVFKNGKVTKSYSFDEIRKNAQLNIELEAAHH
# Source text: NAMPT coupled enzyme activity assay. The NAMPT enzyme assay is based on conditions from Burgos and Schramm and adapted to include a cycling reaction to quantitate NAD^+ production colorimetrically^1. The assay follows the NAMPT-catalyzed production of NMN from substrates NAM and PRPP by coupling NMN formation to the NMNAT reaction, which produces NAD^+ from NMN and ATP. The NAD^+ is then cycled by alcohol dehydrogenase (ADH) and diaphorase to continuously produce WST-1 formazan, which can be detected at 450 nm. Assays are performed at 25° C. in clear 384-well plates, with a final assay volume of 30 μL, and contain the following: 50 mM HEPES, pH 7.5, 5 mM MgCl2, 50 mM NaCl, 0.01% Triton-X 100, 2.5 mM ATP, 40 μM PRPP, 1-500 μM NAM, 1.5 μL WST-1 (Roche Cell Proliferation Reagent), 1 U/mL ADH, 0.083 U/mL diaphorase, 1.5% ethanol, 1% DMSO, 30 nM NAMPT, and 7.4 nM purified human NMNAT1. N-terminal His6-NMNAT1 and C-terminal His6-NAMPT were overexpressed and purified by metal chelate affinity chromatography. Following assay assembly, well signals were measured continuously at 450 nm on a Tecan Infinite M200 plate reader for 1 h with intermittent shaking. Slopes of the linear portions of the reaction progress curves were recorded and corrected for background by subtracting the average slope of control wells containing NAMPT inhibitor FK866.
# A high-throughput screen (HTS) of 22,000 compounds was performed to identify those that augment NAMPT enzymatic activity^38. Screening used a coupled three-enzyme assay to detect conversion of NAM to NAD^+, as previously described by our group^37. […] We also established assays in which to assess the ability of our compounds to mitigate neuronal oxidative stress.
# [2] = tested on: HT-22 mouse hippocampal cell line; test: Glutamate-induced ROS in HT-22 cells (MitoSOX); format: cell-based; conditions: 75 mM glutamate
# Method: as §1
# All assays were performed using cells with passage number 12-50. […]
# Cells were plated at a seeding density of 3,000-5,000 cells/well and allowed to incubate overnight. […] Live cell count, ROS level, and total cell count were then assessed after another 18-24 hours.
# ROS Detection. ROS levels were quantified using MitoSOX Red Mitochondrial Superoxide Indicator (Invitrogen). […] The plate was immediately analyzed in the Celigo Imaging Cytometer using the Live-Dead-Total protocol, where MitoSOX was used in place of propidium iodide. The cell counts and fluorescence intensities for living (calcein), MitoSOX-stained, and total (Hoechst) were acquired. MitoSOX average mean fluorescence intensity (“dead” average mean intensity) was used to quantify mitochondrial ROS. All readouts used were transformed into fold-change over vehicle treatment for visualization.
# [3] = dose response study, 30 μM (FIG. 1A)
smiles,measurement,setting,value
O=C(NCc1ccncc1)Nc1ccc(S(=O)(=O)N2CC3CCC(C2)O3)cc1 [SBI-797812],effect on ROS levels across tested concentrations,[1],no significant effects on ROS at any concentration tested
"COc1ccc(CN(CCC2(C(C)C)CCOC(C)(C)C2)C(=O)c2cccs2)cc1 (stereo not shown) [JGB-1-137, N-(2-(4-isopropyl-2,2-dimethyltetrahydro-2H-pyran-4-yl)ethyl)-N-(4-methoxybenzyl)thiophene-2-carboxamide]",NAD^+ production in THP-1,"THP-1 human monocytes; SAR summary, thiophene replacement of the R^2 furan (FIGS. 4 and 5)",significantly improved NAD^+ production
same,potency in THP-1 relative to NP-A3-B2 (cellular EC50 not quantifiable),THP-1 human monocytes,improved potency
same,ability to raise NAD^+ levels compared to the parent compound NP-A3-B2,THP-1 human monocytes,significantly greater ability to raise NAD^+ levels
same,effect on ROS levels across tested concentrations,[1],dose-dependent downward trend in ROS levels
"COc1ccc(CN(CCC2(C(C)C)CCOC(C)(C)C2)C(=O)c2ccsc2)cc1 (stereo not shown) [JGB-1-127, N-(2-(4-isopropyl-2,2-dimethyltetrahydro-2H-pyran-4-yl)ethyl)-N-(4-methoxybenzyl)thiophene-3-carboxamide]",potency in THP-1 relative to NP-A3-B2 (cellular EC50 not quantifiable),THP-1 human monocytes,improved potency
same,ability to raise NAD^+ levels compared to the parent compound NP-A3-B2,THP-1 human monocytes,significantly greater ability to raise NAD^+ levels
"COc1ccc(CN(CCC2(C(C)C)CCOC(C)(C)C2)C(=O)c2cnc[nH]2)cc1 (stereo not shown) [JGB-1-147, N-(2-(4-isopropyl-2,2-dimethyltetrahydro-2H-pyran-4-yl)ethyl)-N-(4-methoxybenzyl)-1H-imidazole-5-carboxamide]",IC50,NAMPT; NAMPT inhibition,5.32 µM
same,Amax,NAMPT,0.25 fold
same,effect on NAMPT activity,NAMPT,inhibitory activity; also recorded: inhibits NAMPT
"CC(C)C1(CCN(Cc2ccc(N(C)C)cc2)C(=O)c2ccco2)CCOC(C)(C)C1 (stereo not shown) [JGB-1-155, N-(4-(dimethylamino)benzyl)-N-(2-(4-isopropyl-2,2-dimethyltetrahydro-2H-pyran-4-yl)ethyl)furan-2-carboxamide]",EC50,NAMPT; NAMPT activation,3.41 µM
same,activity in THP-1,THP-1 human monocytes; SAR summary (FIGS. 4 and 5),improved activity
same,potency in THP-1 relative to NP-A3-B2 (cellular EC50 not quantifiable),THP-1 human monocytes,improved potency
same,NAD^+ fold over control,THP-1 human monocytes; [3],1.88 fold
same,increase in NAD^+ over control,THP-1 human monocytes; [3],88%
same,ability to raise NAD^+ levels compared to the parent compound NP-A3-B2,THP-1 human monocytes,significantly greater ability to raise NAD^+ levels
same,ROS attenuation relative to other analogs and the hit,[1]; 1 μg/mL TNFα (FIG. 2A),outperformed all other analogs and the hit in ROS attenuation
same,activity in HT-22,"[1]; SAR summary, over the 4-methoxy compounds (FIGS. 4 and 5)",improved activity
same,reduction of TNFα-induced ROS,"[1]; further replicates, 20 μM and 40 μM (FIG. 2B)",highly significant reduction of TNFα-induced ROS
same,effect on ROS levels across tested concentrations,[1],dose-dependent downward trend in ROS levels
same,ROS-reducing activity against glutamate insult,[2],dose-dependent ROS-reducing activity
same,ROS levels relative to vehicle treated control,[2]; 20 μM and 40 μM (FIG. 2D),decreased ROS levels below that of the vehicle treated control
"CC(C)C1(CCN(Cc2ccc3[nH]ccc3c2)C(=O)c2ccco2)CCOC(C)(C)C1 (stereo not shown) [JGB-1-134, N-((1H-indol-5-yl)methyl)-N-(2-(4-isopropyl-2,2-dimethyltetrahydro-2H-pyran-4-yl)ethyl)furan-2-carboxamide]",ability to raise NAD^+ levels compared to the parent compound NP-A3-B2,THP-1 human monocytes,significantly greater ability to raise NAD^+ levels
same,effect on ROS levels at 40 μM,"[1]; 1 μg/mL TNFα, 40 μM compound (FIG. 2A)",trended toward ROS mitigation
same,effect on ROS levels across tested concentrations,[1],little effect until 40 μM
